According to patent US9353101B2 (Merck Sharp & Dohme Corp., priority 2012, dated 2016):

Each compound was assayed against T1, CETP (Homo sapiens (Human), UniProt P11597) (assay: Scintillation Proximity Assay (SPA) for CETP Activity). Details: 15 nM CETP, biotinylated LDL, 3H-cholesterol ester HDL; read-out: SPA IC50 (CETP Inhibition).
Assay type: biochemical
Description: Protocol: Scintillation Proximity Assay (SPA) for CETP Activity
First, low density lipoprotein (LDL) (Meridian) was biotinylated by incubating LDL with biotin for 1 hour on ice, after which it was dialyzed to remove free biotin. Then compounds at varying concentrations were incubated with 15 nM CETP (reagent production group, In Vitro Pharmacology, MRL Rahway) and 50 ug/ml of the biotinylated LDL in 50 mM HEPES, 150 mM NaCl, pH 7.4, for 1 hour at 37° C. The reaction was started by adding ^3H-cholesterol ester high density lipoprotein (HDL) (American Radiochemicals Corp) at a concentration of ˜0.6 nM. The reaction proceeded for 2 hours at 37° C., after which time it was quenched by the addition of 12% acetic acid. PVT streptavadin-coated scintillation proximity beads, which had been brought to room temperature, were then added at a concentration of 4 mg/ml. The assay was then mixed and counted after one half hour in a Microbeta plate reader.
Target sequence in this assay (P11597 18-493): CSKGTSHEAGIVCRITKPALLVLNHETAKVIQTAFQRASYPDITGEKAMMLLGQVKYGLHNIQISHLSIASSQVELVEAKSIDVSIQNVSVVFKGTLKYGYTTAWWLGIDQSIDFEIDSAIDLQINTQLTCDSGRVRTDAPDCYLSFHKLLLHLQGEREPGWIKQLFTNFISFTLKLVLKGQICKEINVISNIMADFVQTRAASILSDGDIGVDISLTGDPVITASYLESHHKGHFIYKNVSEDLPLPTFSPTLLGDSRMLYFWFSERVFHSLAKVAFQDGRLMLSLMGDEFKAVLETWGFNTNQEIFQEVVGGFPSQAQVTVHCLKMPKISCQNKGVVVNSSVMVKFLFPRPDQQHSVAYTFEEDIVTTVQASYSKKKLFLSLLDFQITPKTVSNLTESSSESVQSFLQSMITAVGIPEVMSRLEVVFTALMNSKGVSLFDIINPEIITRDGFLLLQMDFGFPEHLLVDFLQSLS

SMILES	IC50
COc1ncc(C(C)C)cc1-c1cnc(N2CC(F)C2)nc1CN1C(=O)O[C@H](c2cc(C(F)(F)F)cc(C(F)(F)F)c2)[C@@H]1C [Example 2, (4S,5R)-5-[3,5-Bis(trifluoromethyl)phenyl]-3-{[2-(3-fluoroazetidin-1-yl)-5-(5-isopropyl-2-methoxypyridin-3-yl)pyrimidin-4-yl]methyl}-4-methyl-1,3-oxazolidin-2-one]	11 nM
COc1ncc(-c2cnn(C)c2)cc1-c1cnc(N2CC(F)C2)nc1CN1C(=O)O[C@H](c2cc(C(F)(F)F)cc(C(F)(F)F)c2)[C@@H]1C [Example 4]	137 nM
COc1ncc(C2CC2)cc1-c1cnc(N2CC(F)C2)nc1CN1C(=O)O[C@H](c2cc(C(F)(F)F)cc(C(F)(F)F)c2)[C@@H]1C [Example 5]	34 nM
COc1ncc(Cl)cc1-c1cnc(N2CCOCC2)nc1CN1C(=O)O[C@H](c2cc(C(F)(F)F)cc(C(F)(F)F)c2)[C@@H]1C [Example 11, (4S,5R)-5-[3,5-Bis(trifluoromethyl)phenyl]-3-{[5-(5-chloro-2-methoxypyridin-3-yl)-2-(morpholin-4-yl)pyrimidin-4-yl]methyl}-4-methyl-1,3-oxazolidin-2-one]	671 nM
COc1ncc(C2CC2)cc1-c1cnc(N2CCOCC2)nc1CN1C(=O)O[C@H](c2cc(C(F)(F)F)cc(C(F)(F)F)c2)[C@@H]1C [Example 12, (4S,5R)-5-(3,5-Bis(trifluoromethyl)phenyl)-3-((5-(5-cyclopropyl-2-methoxypyridin-3-yl)-2-morpholinopyrimidin-4-yl)methyl)-4-methyloxazolidin-2-one]	530 nM
COc1ncc(Cl)cc1-c1cnc(N2CC(F)C2)nc1CN1C(=O)O[C@H](c2cc(F)cc(F)c2)[C@@H]1C [Example 13, (4S,5R)-3-{[5-(5-Chloro-2-methoxypyridin-3-yl)-2-(3-fluoroazetidin-1-yl)pyrimidin-4-yl]methyl}-5-(3,5-difluorophenyl)-4-methyl-1,3-oxazolidin-2-one]	728 nM

Each compound was assayed against T1, CETP (assay: In vitro radioactive assay of CETP-catalyzed CE and TG transfer (RTA assay), 95% human serum). Details: RTA assay in 95% human serum; read-out: RTA IC50 (CETP Inhibition).
Assay type: biochemical
Description: In Vitro Radioactive Assays of CETP-Catalyzed CE and TG Transfer (RTA Assay)
Reagents and sources are: [3H] cholesteryl oleate (GE #TRK.886), [3H] Triolein (Perkin-Elmer NET-431), Butylated hydroxyl toluene (Aldrich, #D4740-4), DOPC (Sigma, # P6354), Sodium Bromide (Fisher scientific #S255-500), PEG 8000 (Fisher, #BP233-1), and human HDL (Intracel Corp #RP-036).
An in vitro assay for determining IC50's to identify compounds that inhibit CETP transfer activity is performed based on a modification of a published method (Morton and Zilversmit, (1981) A plasma inhibitor of triglyceride and cholesteryl ester transfer activities, J. Biol. Chem. 256(23), 11992-11995). The ability of inhibitors to alter CETP activity is performed using two different assays: one using recombinant CETP and one using an endogenous plasma source of CETP. Both assays measure the transfer of [3H] cholesteryl oleate or [3H] triolein from exogenous LDL to HDL.
Radiolabeled donor particles are generated by first combining 100 μl of 200 μM butylated hydroxyl toluene in CHCl3, 216 μL of 21.57 mM DOPC in EtOH, and either 500 μCi [3H]-triolein (Perkin Elmer #NET-431) or 500 μCi [3H]-cholesteryl oleate (GE #TRK886) in a glass tube. Reagents are mixed, dried under nitrogen, and then resuspended in 2 mL of 50 mM Tris, 27 μM EDTA at pH 7.4. After a brief vortex, the solution is sonicated until clear and mixed with 20 mL of fresh human serum. The mixture is incubated overnight at 37° C. The [3H] labeled LDL substrate is separated at 1.063 g/ml density by sequential ultracentrifugal flotation in NaBr according to the method by (Havel, Eder et al. 1955; Chapman, Goldstein et al. 1981). Once isolated the particles are dialyzed 3× in CETP buffer (50 mM Tris, pH 7.4, 100 mM NaCl, 1 mM EDTA). Human HDL is purchased from Intracel and used as the acceptor particles.
Transfer assays are performed in a 96 or 384-well v-bottom polypropylene plate. For the RTA using recombinant CETP (2% RTA), an assay cocktail is prepared with the final concentrations 128 μg/mL HDL, 20 nM rCETP, 2% human serum, and 1×CETP buffer. 1 μL of each test compound diluted in DMSO is added to 47 μL of assay cocktail per well and incubated at 37° C. for 1 hour. To initiate the transfer reaction, 2 μL radiolabeled LDL is added. After an additional 60 min of incubation at 37° C., the transfer action is terminated by precipitation of LDL with an equal volume of 20% W/V PEG 8000. The plates are centrifuged at 2000 rpm for 30 minutes at 4° C. A 40 μL aliquot of the HDL-containing supernatant is transferred to a Packard Optiplate™ with 200 μL of MicroScint™ 20. After mixing, plates are counted by liquid scintillation. Counts present in the supernatant for blanks (wells containing only HDL acceptor, CETP buffer and DMSO) are subtracted from those containing test compounds and used to correct for non-specific transfer.
For the transfer assay using endogenous CETP from serum (95% RTA), the same procedure is used except that human serum is added such that a final concentration of serum of 95% of the total assay volume is achieved, yielding a concentration of approximately 15 nM endogenous CETP in the assay. This is then combined with HDL and CETP buffer and the reaction proceeds as above and is terminated as described.
Comparison of the counts of samples with inhibitors to an uninhibited (DMSO only) positive control yield a percent inhibition. A plot of percent inhibition vs. log of inhibitor concentration, fit to a Sigmoidal 4 parameter equation is used to calculate IC50.
Starting materials are commercially available or are made using known procedures or as shown below. The examples may be synthesized using the general schemes provided below. The data reported for the examples below were obtained using the RTA assay in 95% human serum.
Target sequence in this assay (P11597 18-493 limits assumed): as the sequence (P11597 18-493) above

SMILES	IC50
Cc1cc(C(=O)O)ccc1-c1nc(C(C)(C)C)c(-c2cnc(N3CC(F)(F)C3)nc2CN2C(=O)O[C@H](c3cc(C(F)(F)F)cc(C(F)(F)F)c3)[C@@H]2C)s1 [Example 49, 4-{5-[4-({(4S,5R)-5-[3,5-Bis(trifluoromethyl)phenyl]-4-methyl-2-oxo-1,3-oxazolidin-3-yl}methyl)-2-(3,3-difluoroazetidin-1-yl)pyrimidin-5-yl]-4-tert-butyl-1,3-thiazol-2-yl}-3-methylbenzoic acid]	800 nM
Cc1cc(C(=O)O)ccc1-c1nc(C(C)(C)C)c(-c2cnc(N3CC(F)C3)nc2CN2C(=O)O[C@H](c3cc(C(F)(F)F)cc(C(F)(F)F)c3)[C@@H]2C)s1 [Example 50, 4-{5-[4-({(4S,5R)-5-[3,5-Bis(trifluoromethyl)phenyl]-4-methyl-2-oxo-1,3-oxazolidin-3-yl}methyl)-2-(3-fluoroazetidin-1-yl)pyrimidin-5-yl]-4-tert-butyl-1,3-thiazol-2-yl}-3-methylbenzoic acid]	197 nM
Cc1cc(C(=O)O)ccc1-c1nc(C)c(-c2cnc(N3CC(F)C3)nc2CN2C(=O)O[C@H](c3cc(C(F)(F)F)cc(C(F)(F)F)c3)[C@@H]2C)s1 [Example 51, 4-{5-[4-({(4S,5R)-5-[3,5-Bis(trifluoromethyl)phenyl]-4-methyl-2-oxo-1,3-oxazolidin-3-yl}methyl)-2-(3-fluoroazetidin-1-yl)pyrimidin-5-yl]-4-methyl-1,3-thiazol-2-yl}-3-methylbenzoic acid]	33 nM
Cc1cc(C(=O)O)ccc1-c1nc(C)c(-c2cnc(N3CC(F)(F)C3)nc2CN2C(=O)O[C@H](c3cc(C(F)(F)F)cc(C(F)(F)F)c3)[C@@H]2C)s1 [Example 52, 4-{5-[4-({(4S,5R)-5-[3,5-Bis(trifluoromethyl)phenyl]-4-methyl-2-oxo-1,3-oxazolidin-3-yl}methyl)-2-(3,3-difluoroazetidin-1-yl)pyrimidin-5-yl]-4-methyl-1,3-thiazol-2-yl}-3-methylbenzoic acid]	61 nM
Cc1cc(C(=O)O)ccc1-c1cnc(C)c(-c2cnc(N3CC(F)C3)nc2CN2C(=O)O[C@H](c3cc(C(F)(F)F)cc(C(F)(F)F)c3)[C@@H]2C)c1 [Example 54, 4-{5-[4-({(4S,5R)-5-[3,5-Bis(trifluoromethyl)phenyl]-4-methyl-2-oxo-1,3-oxazolidin-3-yl}methyl)-2-(3-fluoroazetidin-1-yl)pyrimidin-5-yl]-6-methylpyridin-3-yl}-3-methylbenzoic acid]	26 nM
COc1ncc(-c2ccc(C(=O)OC(C)(C)C)cc2C)cc1-c1ccc(N2CCOCC2)nc1CN1C(=O)O[C@H](c2cc(C(F)(F)F)cc(C(F)(F)F)c2)[C@@H]1C [Example 55]	22 nM
COc1ncc(-c2ccc(C(=O)O)cc2C)cc1-c1ccc(N2CCOCC2)nc1CN1C(=O)O[C@H](c2cc(C(F)(F)F)cc(C(F)(F)F)c2)[C@@H]1C [Example 56]	9 nM
COc1ncc(-c2c(C)cc(C(=O)OC(C)(C)C)cc2C)cc1-c1ccc(N2CC(F)(F)C2)nc1CN1C(=O)O[C@H](c2cc(C(F)(F)F)cc(C(F)(F)F)c2)[C@@H]1C [Example 57]	5 nM
COc1ncc(-c2c(C)cc(C(=O)O)cc2C)cc1-c1ccc(N2CC(F)(F)C2)nc1CN1C(=O)O[C@H](c2cc(C(F)(F)F)cc(C(F)(F)F)c2)[C@@H]1C [Example 58]	7 nM
COc1ncc(-c2ccc(C(=O)OC(C)(C)C)cc2C)cc1-c1ccc(N2CC(F)(F)C2)nc1CN1C(=O)O[C@H](c2cc(C(F)(F)F)cc(C(F)(F)F)c2)[C@@H]1C [Example 59]	15 nM
COc1ncc(-c2ccc(C(=O)O)cc2C)cc1-c1ccc(N2CC(F)(F)C2)nc1CN1C(=O)O[C@H](c2cc(C(F)(F)F)cc(C(F)(F)F)c2)[C@@H]1C [Example 60]	5 nM
COc1ncc(-c2ccc(C(=O)OC(C)(C)C)cc2C)cc1-c1ccc(N2CC(F)C2)nc1CN1C(=O)O[C@H](c2cc(C(F)(F)F)cc(C(F)(F)F)c2)[C@@H]1C [Example 61]	15 nM
COc1ncc(-c2ccc(C(=O)O)cc2C)cc1-c1ccc(N2CC(F)C2)nc1CN1C(=O)O[C@H](c2cc(C(F)(F)F)cc(C(F)(F)F)c2)[C@@H]1C [Example 62]	6 nM
COc1ncc(-c2c(C)cc(C(=O)O)cc2C)cc1-c1cnc(N2CC(F)(F)C2)cc1CN1C(=O)O[C@H](c2cc(C(F)(F)F)cc(C(F)(F)F)c2)[C@@H]1C [Example 63]	52 nM
Cc1noc(C)c1-c1cnc(N2CCC2)nc1CN1C(=O)O[C@H](c2cc(C(F)(F)F)cc(C(F)(F)F)c2)[C@@H]1C [Example 64, (4S,5R)-3-{[2-(azetidin-1-yl)-5-(3,5-dimethylisoxazol-4-yl)pyrimidin-4-yl]methyl}-5-[3,5-bis(trifluoromethyl)phenyl]-4-methyl-1,3-oxazolidin-2-one]	271 nM
